According to patent US20030095958A1, “Inhibitors of bace” (priority 2001, published 2003):

target: BACE (Homo sapiens, UniProt P56817); experiment: Ki Determination for the Inhibition of BACE (FS-1 peptide fluorescence cleavage assay); type: biochemical; details: apparent Ki; 50 nM BACE, 10 μM FS-1 substrate, 0.1M sodium acetate pH 4.5
Description: Compounds were tested against BACE activity using the following modifications of the method described in J. Ermolieff et al. (2000) Biochemistry 39(51):16263.
All compound evaluations were performed in 0.1M sodium acetate (buffer), pH, 4.5, 10 μM substrate (FS-1 peptide as described in the reference above; this is commercially available), varying concentrations of the test compound or control (DMSO to yeild 2% vol/vol), and 50 nM BACE. The assay volume is 100 μL.
Two microliters of the test compound dissolved in DMSO are added to each well in a 96-well microtiter plate. Seventy eight microliters of BACE are mixed with buffer and added to each well then incubated at room temperature for 15 minutes. A stock solution of 50 μM FS-1 substrate was prepared by addition of an aliquot of FS-1 substrate which was dissolved in DMSO to the buffer and mixed well. The reaction is initiated by addition of 20 μL of the FS-1 mix to the remaining, preincubated assay components. The cleavage reaction of substrate to product is measured using a Molecular Devices fluorescence plate reader with the excitation and emission filter pairs of 355 nm and 495 nm, respectively. Apparent Ki values are determined by fitting the data to the integrated equation for competitive tight binding inhibition.

BACE, sequence (P56817 46-501): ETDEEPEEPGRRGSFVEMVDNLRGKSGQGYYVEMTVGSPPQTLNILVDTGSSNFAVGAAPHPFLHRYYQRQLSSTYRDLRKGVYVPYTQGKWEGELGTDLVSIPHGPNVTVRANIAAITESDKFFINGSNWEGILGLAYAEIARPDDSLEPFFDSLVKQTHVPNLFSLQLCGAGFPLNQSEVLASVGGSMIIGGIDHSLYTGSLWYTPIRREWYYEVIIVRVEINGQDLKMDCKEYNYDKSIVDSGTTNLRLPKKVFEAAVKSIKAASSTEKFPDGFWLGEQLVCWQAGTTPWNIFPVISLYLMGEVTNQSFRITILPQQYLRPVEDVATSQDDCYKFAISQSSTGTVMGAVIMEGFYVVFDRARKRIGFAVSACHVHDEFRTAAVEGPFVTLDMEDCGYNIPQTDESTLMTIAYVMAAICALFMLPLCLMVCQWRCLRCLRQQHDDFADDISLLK

Going from `O=C(Nc1ccc(-c2ccc(C(F)(F)F)cc2)cc1N1CCNCC1)c1cccc2ccccc12` [Compound 174, Naphthalene-1-carboxylic acid (3-piperazin-1-yl-4′-trifluoromethyl-biphenyl-4-yl)-amide] to `O=C(Nc1cc(C(F)(F)F)ccc1N1CCCNCC1)c1cccc2ccccc12` [Compound 201, Naphthalene-1-carboxylic acid (2-[1,4]diazepan-1-yl-5-trifluoromethyl-phenyl)-amide], the Ki rises from under 3 µM to over 30 µM. The first binds more tightly here.

`O=C(Nc1cc(F)c(-c2ccc(Cl)c(Cl)c2)cc1N1CCNCC1)c1cccc2ccccc12` [Compound 175, Naphthalene-1-carboxylic acid (3′,4′-dichloro-2-fluoro-5-piperazin-1-yl-biphenyl-4-yl)-amide] and `O=C(Nc1cc(Br)c(COc2ccccc2C(F)(F)F)cc1N1CCNCC1)c1nccc2ccccc12` [Compound 183, Isoquinoline-1-carboxylic acid [5-bromo-2-piperazin-1-yl-4-(2-trifluoromethyl-phenoxymethyl)-phenyl]-amide] cannot be ordered by Ki: under 3 µM for the first, under 3 µM for the second.

`O=C(Nc1cc(Br)cc(COc2ccccc2C(F)(F)F)c1N1CCNCC1)c1nccc2ccccc12` [Compound 176, Isoquinoline-1-carboxylic acid [5-bromo-2-piperazin-1-yl-3-(2-trifluoromethyl-phenoxymethyl)-phenyl]-amide] and `O=C(Nc1cc(-c2ccccc2)cc(COc2ccccc2C(F)(F)F)c1N1CCNCC1)c1nccc2ccccc12` [Compound 177, Isoquinoline-1-carboxylic acid [4-piperazin-1-yl-5-(2-trifluoromethyl-phenoxymethyl)-biphenyl-3-yl]-amide] cannot be ordered by Ki: under 3 µM for the first, under 3 µM for the second.

`O=C(Nc1ccc(COc2ccccc2C(F)(F)F)cc1N1CCNCC1)c1nccc2ccccc12` [Compound 178, Isoquinoline-1-carboxylic acid [2-piperazin-1-yl-4-(2-trifluoromethyl-phenoxymethyl)-phenyl]-amide] and `O=C(Nc1cc(-c2ccoc2)c(COc2ccccc2C(F)(F)F)cc1N1CCNCC1)c1nccc2ccccc12` [Compound 187, Isoquinoline-1-carboxylic acid [5-furan-3-yl-2-piperazin-1-yl-4-(2-trifluoromethyl-phenoxymethyl)-phenyl]-amide] cannot be ordered by Ki: under 3 µM for the first, under 3 µM for the second.

`O=S(=O)(Nc1cc(-c2ccc(Cl)c(Cl)c2)ccc1N1CCNCC1)c1ccc(-c2ccc(C(F)(F)F)cc2)cc1` [Compound 179, 4′-Trifluoromethyl-biphenyl-4-sulfonic acid (3′,4′-dichloro-4-piperazin-1-yl-biphenyl-3-yl)-amide] and `O=S(=O)(Nc1cc(-c2ccc(Cl)c(Cl)c2)ccc1N1CCNCC1)c1ccc(-c2ccc(Cl)cc2)cc1` [Compound 181, 4′-Chloro-biphenyl-4-sulfonic acid (3′,4′-dichloro-4-piperazin-1-yl-biphenyl-3-yl)-amide] fall in the same range of Ki: 3 to 30 µM for the first, 3 to 30 µM for the second.

First: O=S(=O)(Nc1cc(-c2ccc(Cl)c(Cl)c2)ccc1N1CCNCC1)c1ccc(-c2cccc(Cl)c2)cc1 [Compound 180, 3′-Chloro-biphenyl-4-sulfonic acid (3′,4′-dichloro-4-piperazin-1-yl-biphenyl-3-yl)-amide]
Second: O=C(Nc1cc(-c2ccc(O)cc2)c(COc2ccccc2C(F)(F)F)cc1N1CCNCC1)c1nccc2ccccc12 [Compound 186, Isoquinoline-1-carboxylic acid [4′-hydroxy-4-piperazin-1-yl-6-(2-trifluoromethyl-phenoxymethyl)-biphenyl-3-yl]-amide]
The Ki of the first is higher: 3 to 30 µM for the first, under 3 µM for the second.

First: O=C(Nc1cc(-c2ccccc2)c(COc2ccccc2C(F)(F)F)cc1N1CCNCC1)c1nccc2ccccc12 [Compound 184, Isoquinoline-1-carboxylic acid [4-piperazin-1-yl-6-(2-trifluoromethyl-phenoxymethyl)-biphenyl-3-yl]-amide]
Second: O=C(Nc1cc(-c2ccc(C(F)(F)F)cc2)c(COc2ccccc2C(F)(F)F)cc1N1CCNCC1)c1nccc2ccccc12 [Compound 185, Isoquinoline-1-carboxylic acid [4-piperazin-1-yl-4′-trifluoromethyl-6-(2-trifluoromethyl-phenoxymethyl)-biphenyl-3-yl]-amide]
The Ki of the first is lower: under 3 µM for the first, 3 to 30 µM for the second. The first binds more tightly here.

`CCOC(=O)c1cc(Br)cc(NCc2ccc3ccccc3n2)c1N1CCNCC1` [Compound 188, 5-Bromo-2-piperazin-1-yl-3-[(quinolin-2-ylmethyl)-amino]-benzoic acid ethyl ester] and `O=C(Nc1cc(C(F)(F)F)ccc1N1CCNCC1)c1cnc2ccccc2n1` [Compound 189, Quinoxaline-2-carboxylic acid (2-piperazin-1-yl-5-trifluoromethyl-phenyl)-amide] fall in the same range of Ki: 3 to 30 µM for the first, 3 to 30 µM for the second.

`O=C(Nc1cc(C(F)(F)F)ccc1N1CCNCC1)c1ccc2cnccc2n1` [Compound 190, [1,6]Naphthyridine-2-carboxylic acid (2-piperazin-1-yl-5-trifluoromethyl-phenyl)-amide] and `O=C(O)C1CN(c2ccc(-c3ccc(C(F)(F)F)cc3)cc2NCc2ccc3ccccc3c2)CCN1` (centres unmarked) [Compound 191, 4-{3-[(Naphthalen-2-ylmethyl)-amino]-4′-trifluoromethyl-biphenyl-4-yl}-piperazine-2-carboxylic acid] fall in the same range of Ki: 3 to 30 µM for the first, 3 to 30 µM for the second.

`COC(=O)C1CN(c2ccc(-c3ccc(C(F)(F)F)cc3)cc2NCc2ccc3ccccc3c2)CCN1` (centres unmarked) [Compound 192, 4-{3-[(Naphthalen-2-ylmethyl)-amino]-4′-trifluoromethyl-biphenyl-4-yl}-piperazine-2-carboxylic acid methyl ester] and `CN(C)C(=O)C1CN(c2ccc(-c3ccc(C(F)(F)F)cc3)cc2NCc2ccc3ccccc3c2)CCN1` (centres unmarked) [Compound 195, 4-{3-[(Naphthalen-2-ylmethyl)-amino]-4′-trifluoromethyl-biphenyl-4-yl}-piperazine-2-carboxylic acid dimethylamide] cannot be ordered by Ki: under 3 µM for the first, under 3 µM for the second.

`CC(C)NC(=O)C1CN(c2ccc(-c3ccc(C(F)(F)F)cc3)cc2NCc2ccc3ccccc3c2)CCN1` (centres unmarked) [Compound 193, 4-{3-[(Naphthalen-2-ylmethyl)-amino]-4′-trifluoromethyl-biphenyl-4-yl}-piperazine-2-carboxylic acid isopropylamide] and `O=C(NCc1ccccc1)C1CN(c2ccc(-c3ccc(C(F)(F)F)cc3)cc2NCc2ccc3ccccc3c2)CCN1` (centres unmarked) [Compound 194, 4-{3-[(Naphthalen-2-ylmethyl)-amino]-4′-trifluoromethyl-biphenyl-4-yl}-piperazine-2-carboxylic acid benzylamide] cannot be ordered by Ki: under 3 µM for the first, under 3 µM for the second.

`Cc1cc(Cl)ccc1OCCCC(=O)N1CCNCC1C(=O)Nc1ccc2ccccc2c1` (centres unmarked) [Compound 200, 1-[4-(4-Chloro-2-methyl-phenoxy)-butyryl]-piperazine-2-carboxylic acid naphthalen-2-ylamide] and `O=C(Nc1ccc2ccccc2c1)C1CNCCc2c1[nH]c1ccccc21` (centres unmarked) [Compound 202, 1,2,3,4,5,6-Hexahydro-azepino[4,5-b]indole-5-carboxylic acid naphthalen-2-ylamide] cannot be ordered by Ki: over 30 µM for the first, over 30 µM for the second.

`O=C(NCc1ccco1)C1CNCCC1c1ccc(COc2ccccc2C(F)(F)F)cc1` (centres unmarked) [Compound 203, 4-[4-(2-Trifluoromethyl-phenoxymethyl)-phenyl]-piperidine-3-carboxylic acid (furan-2-ylmethyl)-amide] and `O=C(Nc1ccccc1)C1CNCCC1c1ccc(COc2ccccc2C(F)(F)F)cc1` (centres unmarked) [Compound 204] cannot be ordered by Ki: over 30 µM for the first, over 30 µM for the second.
